Laboratory results published in patent US20240335563A1, “EPIGENETIC MODULATORS FOR TISSUE REPROGRAMMING” (THE TRUSTEES OF INDIANA UNIVERSITY, priority 2021, published 2024).

Tests used:
[1] = tested on: streptozotocin-induced diabetic C57BL/6 male mice; test: Blood glucose in streptozotocin-induced diabetic mice after TNT-PMGF, with intradermal epigenetic modulator; assay type: in vivo; details: p<0.001 vs. week 4
intermediate iPSCs = details: cited from earlier work; for SCR efficiency: HDAC inhibition
ESC-specific genes = details: alone, without transduction of the reprogramming factors; cited from earlier work
[2] = tested on: neural precursor cells and MEFs; details: G9a inhibition, H3K9 hypomethylation; cited from earlier work
mouse fibroblasts = details: LSD1 inhibition; cited from earlier work

## Nc1ncn([C@@H]2O[C@H](CO)[C@@H](O)[C@H]2O)c(=O)n1 [5-Azacytidine]
[1]; week 5, after 5-Azacytidine 10 mg/Kg intradermally at TNT sites thrice in week 4, TNT PMGF non-responders
  average blood glucose: ~275 mg/dL
[1]; week 8, after subsequent 5-Azacytidine injection at week 7
  blood glucose: ~170 mg/dL
[1]; week 9, after subsequent 5-Azacytidine injection at week 7
  blood glucose: 169 mg/dL
Intermediate iPSCs; DNMT inhibition during reprogramming
  reprogramming of intermediate iPSCs: allows intermediate iPSCs to be fully reprogrammed

## CC(/C=C/C(=O)NO)=C\[C@@H](C)C(=O)c1ccc(N(C)C)cc1 [trichostatin A]
Intermediate iPSCs
  SCR efficiency: improves SCR efficiency
ESC-specific genes
  upregulation of ESC-specific genes: sufficient to upregulate ESC-specific genes

## COc1cc2nc(N3CCCN(C)CC3)nc(NC3CCN(Cc4ccccc4)CC3)c2cc1OC [BIX-01294]
[2]
  reprogramming of neural precursor cells and MEFs into iPSCs: enhances the reprogramming

## CCCC(CCC)C(=O)O [valproic acid]
Intermediate iPSCs
  SCR efficiency: improves SCR efficiency

## N[C@@H]1C[C@H]1c1ccccc1 (racemic) [Parnate, tranylcypromine]
Mouse fibroblasts
  reprogramming efficiency of mouse fibroblasts: increases the reprogramming efficiency
